Data published in US20250161281A1, “EMOPAMIL-BINDING PROTEIN INHIBITORS AND USES THEREOF” (BIOGEN MA INC., priority 2022, published 2025).

target: T1, EBP (Homo sapiens, UniProt Q15125); assay: EBP Functional Assay (EBP immunoaffinity LC-MS assay); format: biochemical; details: HEK293T cells as source of EBP enzyme; 30 min with inhibitor, then zymosterol-d5, 37° C. for 4 h; percent conversion by LC-APCI MRM MS
T1 construct: HEK293T cells were utilized as the source of EBP enzyme; endogenous in cells; host or cells: HEK293T
T1 sequence (Q15125 whole entry): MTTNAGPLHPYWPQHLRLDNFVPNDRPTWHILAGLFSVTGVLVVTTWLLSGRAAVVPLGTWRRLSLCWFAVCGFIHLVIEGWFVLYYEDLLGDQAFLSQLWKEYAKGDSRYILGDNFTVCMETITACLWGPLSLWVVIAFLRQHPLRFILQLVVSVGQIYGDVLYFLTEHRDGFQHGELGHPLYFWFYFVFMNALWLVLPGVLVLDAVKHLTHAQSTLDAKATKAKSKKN
Experimental: The EBP immunoaffinity (IA) LC-MS assay measures the potency of small molecule inhibitors of EBP by quantifying their concentration-dependent changes in the enzyme's substrate and product using liquid chromatography atmospheric pressure chemical ionization multiple reaction monitoring mass spectrometry (LC-APCI MRM MS). HEK293T cells were utilized as the source of EBP enzyme. The enzyme was incubated with the small molecule inhibitors at variable concentrations for 30 min. Deuterated form of EBP substrate, zymosterol-d5 (Avanti Polar Lipids, Cat #700068P-1 mg), was then added and the plate was incubated at 37° C. for 4 h. Finally, the sterol isomers were extracted and injected to LC-APCI MRM MS. MRM transition used for the quantification for both zymosterol and dihydrolathosterol (substrate and product of EBP enzymatic reaction, respectively) is 372.3-203.2, CE 30 and DP 80 in positive ion mode. Percent conversion of the zymosterol-d5 to dehydrolathosterol-d5 was used to derive IC50 curves. Tasin-1 (1′-[(4-Methoxyphenyl)sulfonyl]-4-methyl-1,4′-bipiperidine, CAS 792927-06-1) was used as the reference small molecule inhibitor. Percent conversion versus the compound concentration data were fit to the following 4-parameter logistic model to generate IC50 curves: […]

| Structure (SMILES) | IC50 [µM] |
| --- | --- |
| O=S(=O)(c1ccc(OC(F)F)cc1)N1[C@@H]2CC[C@H]1C[C@H](NCC1COC1)C2 [Example 31, (1R,3s,5S)-8-((4-(Difluoromethoxy)phenyl)sulfonyl)-N-(oxetan-3-ylmethyl)-8-azabicyclo[3.2.1]octan-3-amine] | < 0.05 |
| Cc1nonc1S(=O)(=O)N1[C@@H]2CC[C@H]1C[C@@H](N1CCC(C)CC1)C2 [Example 1, 3-Methyl-4-(((1R,3r,5S)-3-(4-methylpiperidin-1-yl)-8-azabicyclo[3.2.1]octan-8-yl)sulfonyl)-1,2,5-oxadiazole] | < 0.05 |
| Cc1noc(C)c1S(=O)(=O)N1[C@@H]2CC[C@H]1C[C@H](CN1CCOCC1)C2 [Example 38, 4-(((1R,3s,5S)-8-((3,5-Dimethylisoxazol-4-yl)sulfonyl)-8-azabicyclo[3.2.1]octan-3-yl)methyl)morpholine] | < 0.05 |
| Cc1nc(C(F)(F)F)ccc1S(=O)(=O)N1[C@@H]2CC[C@H]1C[C@@H](N1CC3(COC3)C1)C2 (single isomer, unassigned) [Example 23] | < 0.05 |
| O=S(=O)(c1ccc(OC(F)F)cc1)N1[C@@H]2CC[C@H]1C[C@@H](NCC1(O)CCOCC1)C2 [Example 17, 4-((((1R,3r,5S)-8-((4-(Difluoromethoxy)phenyl)sulfonyl)-8-azabicyclo[3.2.1]octan-3-yl)amino)methyl)tetrahydro-2H-pyran-4-ol] | < 0.05 |
| Cc1cc(C)c(S(=O)(=O)N2[C@@H]3CC[C@H]2C[C@H](CN2CCOCC2)C3)cn1 [Example 39, 4-(((1R,3s,5S)-8-((4,6-Dimethylpyridin-3-yl)sulfonyl)-8-azabicyclo[3.2.1]octan-3-yl)methyl)morpholine] | 0.05 to 0.15 |
| CCn1nccc1S(=O)(=O)N1[C@@H]2CC[C@H]1C[C@H](N1CCC(C)CC1)C2 [Example 13, (1R,3s,5S)-8-((1-Ethyl-1H-pyrazol-5-yl)sulfonyl)-3-(4-methylpiperidin-1-yl)-8-azabicyclo[3.2.1]octane] | < 0.05 |
| O=S(=O)(c1ccc(OC(F)F)cc1)N1[C@@H]2CC[C@H]1C[C@H](NCC1(O)CCOCC1)C2 [Example 18, 4-((((1R,3s,5S)-8-((4-(Difluoromethoxy)phenyl)sulfonyl)-8-azabicyclo[3.2.1]octan-3-yl)amino)methyl)tetrahydro-2H-pyran-4-ol] | < 0.05 |

Now from value to compound:

| IC50 [µM] | Structure (SMILES) |
| --- | --- |
| < 0.05 | Cc1nc(C(F)(F)F)ccc1S(=O)(=O)N1[C@@H]2CC[C@H]1C[C@H](NC1CC3(COC3)C1)C2 (single isomer, unassigned) [Example 68] |
| 0.05 to 0.15 | O=S(=O)(c1ccc(OC(F)F)cc1)N1C2CCC1CC(N1CC3CC(C3)C1)C2 (stereo not drawn) [Example 57, 3-(8-((4-(Difluoromethoxy)phenyl)sulfonyl)-8-azabicyclo[3.2.1]octan-3-yl)-3-azabicyclo[3.1.1]heptane] |
| 0.05 to 0.15 | O=S(=O)(c1ccc(OC(F)F)cc1)N1C2CCC1CC(NCC1CC(O)C1)C2 (single isomer, unassigned) [Example 62] |
| 0.15 to 2 | CC1CCN([C@@H]2C[C@H]3CC[C@@H](C2)N3S(=O)(=O)c2cn(-c3ccccc3)nn2)CC1 [Example 44, (1R,3s,5S)-3-(4-Methylpiperidin-1-yl)-8-((1-phenyl-1H-1,2,3-triazol-4-yl)sulfonyl)-8-azabicyclo[3.2.1]octane] |
